Test results: patent US8258134B2, “Pyridazinone glucokinase activators” (Hoffmann-La Roche Inc., priority 2008, dated 2012)

What follows are molecules tested against T1, Recombinant human liver GK1 (GST-GK) (Homo sapiens, UniProt P35557) (assay: Glucokinase in vitro assay (G6PDH-coupled NADH generation, OD340)). Settings: 30 uM test compound, 5 mM D-glucose.
T1 construct: made in house; host or cells: E. coli
T1 sequence (P35557 1-466 isoform P35557-2): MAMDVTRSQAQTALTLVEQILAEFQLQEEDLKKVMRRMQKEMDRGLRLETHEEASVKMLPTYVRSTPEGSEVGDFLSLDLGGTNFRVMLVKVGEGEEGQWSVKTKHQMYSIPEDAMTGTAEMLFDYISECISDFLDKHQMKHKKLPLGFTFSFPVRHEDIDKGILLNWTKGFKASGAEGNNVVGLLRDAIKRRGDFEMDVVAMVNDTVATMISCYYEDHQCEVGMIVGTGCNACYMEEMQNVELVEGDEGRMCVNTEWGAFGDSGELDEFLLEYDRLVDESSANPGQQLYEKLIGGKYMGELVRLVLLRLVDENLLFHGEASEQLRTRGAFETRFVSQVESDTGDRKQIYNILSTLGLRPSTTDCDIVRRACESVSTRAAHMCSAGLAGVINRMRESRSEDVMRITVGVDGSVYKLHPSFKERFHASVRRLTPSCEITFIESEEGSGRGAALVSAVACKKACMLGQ
Format: biochemical
Procedure: Glucokinase In Vitro Assay Protocol: Glucokinase (GK) was assayed by coupling the production of glucose-6-phosphate to the generation of NADH with glucose-6-phosphate dehydrogenase (G6PDH, 0.75-1 k units/mg; Boehringer Mannheim, Indianapolis, Ind.) from Leuconostoc mesenteroides as the coupling enzyme (Scheme 2):
Recombinant human liver GK1 was expressed in E. coli as a glutathione S-transferase fusion protein (GST-GK) [Liang et al, 1995] and was purified by chromatography over a glutathione-Sepharose 4B affinity column using the procedure provided by the manufacturer (Amersham Pharmacia Biotech, Piscataway, N.J.).
The assay was conducted at 30° C. in a flat bottom 96-well tissue culture plate from Costar (Cambridge, Mass.) with a final incubation volume of 120 μL. The incubation reaction contained the following: 25 mM Hepes buffer (pH 7.1), 25 mM KCl, 5 mM D-glucose, 1 mM ATP, 1.8 mM NAD, 2 mM MgCl2, 1 μM sorbitol-6-phosphate, 1 mM dithiothreitol, test drug or 10% DMSO, ˜7 units/ml G6PDH, and GK (see below). All organic reagents were >98% pure and were from Boehringer Mannheim with the exceptions of D-glucose and Hepes which were from Sigma Chemical Co, St Louis, Mo. Test compounds were dissolved in DMSO and were added to the incubation reaction minus GST-GK in a volume of 12 μL to yield a final DMSO concentration of 10%. This mix was pre-incubated in the temperature controlled chamber of a SPECTRAmax 250 microplate spectrophotometer (Molecular Devices Corporation, Sunnyvale, Calif.) for 10 minutes to allow temperature equilibrium and then the reaction was started by the addition of 20 μL GST-GK.
After addition of enzyme, the increase in optical density (OD) at 340 nm was monitored spectrophotometrically to determine the rate of change (OD340 per min). The GK activity (OD340/min) in control wells (10% DMSO minus GK activators) was compared with the activity in wells containing test GK activators, and the concentration of activator that produced a 50% increase in the activity of GK, i.e., the SC1.5, was calculated. The table below provides the in vitro glucokinase activity for the compounds in the Examples: […]

Q: `CC(C)(O)Cn1ccc(NC(=O)[C@@H](CC2CCCC2)n2ncc(Oc3ccccc3S(C)(=O)=O)cc2=O)n1` [Example 30B, (R)-3-Cyclopentyl-N-[1-(2-hydroxy-2-methyl-propyl)-1H-pyrazol-3-yl]-2-[4-(2-methanesulfonyl-phenoxy)-6-oxo-6H-pyridazin-1-yl]-propionamide] was tested. Which “fold activation @ 30 uM” value did it give?
A: 1.16 fold

Q: For `O=C(Nc1ccn(C[C@@H](O)CO)n1)C(CC1CCCC1)n1ncc(OC2CCC2)cc1=O` (stereo partly drawn) [Example 94, 2-(4-Cyclobutoxy-6-oxo-6H-pyridazin-1-yl)-3-cyclopentyl-N-[1-((R)-2,3-dihydroxy-propyl)-1H-pyrazol-3-yl]-propionamide], which “fold activation @ 30 uM” value is on record?
A: 1.33 fold

Q: How did the “fold activation @ 30 uM” value turn out when `Cn1nc(NC(=O)C(CC2CCCC2)n2ncc(Oc3ccccc3C(F)(F)F)cc2=O)cc1C(F)(F)F` (stereo not shown) [Example 45, 3-Cyclopentyl-N-(1-methyl-5-trifluoromethyl-1H-pyrazol-3-yl)-2-[6-oxo-4-(2-trifluoromethyl-phenoxy)-6H-pyridazin-1-yl]-propionamide] was run?
A: 1.15 fold

Same assay, conditions: 5 mM D-glucose, 30° C., pH 7.1, 10% DMSO

Q: With `CC(C)(O)Cn1ccc(NC(=O)[C@H](CC2CCCC2)n2ncc(Oc3ccccc3N3CCCC3)cc2=O)n1` [Example 26A, (S)-3-Cyclopentyl-N-[1-(2-hydroxy-2-methyl-propyl)-1H-pyrazol-3-yl]-2-[6-oxo-4-(2-pyrrolidin-1-yl-phenoxy)-6H-pyridazin-1-yl]-propionamide] as the molecule, how does the “SC1.5 average (concentration of activator that produced a 50% increase in the activity of GK)” value read?
A: 0.102 µM

Q: `CC(C)CC(C(=O)Nc1ccn(CC(C)(C)O)n1)n1ncc(Oc2ccccc2Cl)cc1=O` (stereo not shown) [Example 134, 2-[4-(2-Chloro-phenoxy)-6-oxo-6H-pyridazin-1-yl]-4-methyl-pentanoic acid [1-(2-hydroxy-2-methyl-propyl)-1H-pyrazol-3-yl]-amide] was tested. Which “SC1.5 average (concentration of activator that produced a 50% increase in the activity of GK)” value did it give?
A: 0.693 µM

Q: Which “SC1.5 average (concentration of activator that produced a 50% increase in the activity of GK)” value does the source give for `CC(C)(O)Cn1ccc(NC(=O)[C@@H](CC2CCOCC2)n2ncc(Oc3c(F)cccc3F)cc2=O)n1` [Example 43B, (R)-2-[4-(2,6-Difluoro-phenoxy)-6-oxo-6H-pyridazin-1-yl]-N-[1-(2-hydroxy-2-methyl-propyl)-1H-pyrazol-3-yl]-3-(tetrahydro-pyran-4-yl)-propionamide] here?
A: 7.536 µM

Q: How did the “SC1.5 average (concentration of activator that produced a 50% increase in the activity of GK)” value turn out when `CC(C)(O)Cn1ccc(NC(=O)[C@@H](CC2CCCC2)n2ncc(Oc3ccccc3S(C)(=O)=O)cc2=O)n1` [Example 30B, (R)-3-Cyclopentyl-N-[1-(2-hydroxy-2-methyl-propyl)-1H-pyrazol-3-yl]-2-[4-(2-methanesulfonyl-phenoxy)-6-oxo-6H-pyridazin-1-yl]-propionamide] was run?
A: > 30 µM

Q: Which “SC1.5 average (concentration of activator that produced a 50% increase in the activity of GK)” value does the source give for `COC(=O)c1ccc(NC(=O)C(CC2CCCC2)n2ncc(Oc3ccccc3F)cc2=O)nc1` (stereo not shown) [Example 70, 6-{3-Cyclopentyl-2-[4-(2-fluoro-phenoxy)-6-oxo-6H-pyridazin-1-yl]-propionylamino}-nicotinic acid methyl ester] here?
A: 0.036 µM

Q: For `CC(C)(O)Cn1ccc(NC(=O)C(CC2CCCC2)n2ncc(Oc3ccccc3N3CCCCC3)cc2=O)n1` (stereo not shown) [Example 27, 3-Cyclopentyl-N-[1-(2-hydroxy-2-methyl-propyl)-1H-pyrazol-3-yl]-2-[6-oxo-4-(2-piperidin-1-yl-phenoxy)-6H-pyridazin-1-yl]-propionamide], which “SC1.5 average (concentration of activator that produced a 50% increase in the activity of GK)” value is on record?
A: 2.385 µM

Q: For `CC(C)(O)Cn1ccc(NC(=O)C(CC2CCCCC2)n2ncc(Oc3ccc(OC(F)(F)F)cc3Cl)cc2=O)n1` (stereo not shown) [Example 119, 2-[4-(2-Chloro-4-trifluoromethoxy-phenoxy)-6-oxo-6H-pyridazin-1-yl]-3-cyclohexyl-N-[1-(2-hydroxy-2-methyl-propyl)-1H-pyrazol-3-yl]-propionamide], which “SC1.5 average (concentration of activator that produced a 50% increase in the activity of GK)” value is on record?
A: 0.811 µM

Q: For `Cc1ccccc1Oc1cnn([C@H](CC2CCCC2)C(=O)Nc2ccn(CC(C)(C)O)n2)c(=O)c1` [Example 24B, (R)-3-Cyclopentyl-N-[1-(2-hydroxy-2-methyl-propyl)-1H-pyrazol-3-yl]-2-(6-oxo-4-o-tolyloxy-6H-pyridazin-1-yl)-propionamide], which “SC1.5 average (concentration of activator that produced a 50% increase in the activity of GK)” value is on record?
A: 5.88 µM

Q: Which “SC1.5 average (concentration of activator that produced a 50% increase in the activity of GK)” value does the source give for `CC(C)(O)Cn1ccc(NC(=O)[C@H](CC2CCCC2)n2ncc(Oc3ccccc3C3CCCC3)cc2=O)n1` [Example 22A, (S)-3-Cyclopentyl-2-[4-(2-cyclopentyl-phenoxy)-6-oxo-6H-pyridazin-1-yl]-N-[1-(2-hydroxy-2-methyl-propyl)-1H-pyrazol-3-yl]-propionamide] here?
A: 0.263 µM

Q: With `CC(C)(O)Cn1ccc(NC(=O)[C@H](CC2CCOCC2)n2ncc(Oc3c(F)cccc3F)cc2=O)n1` [Example 43A, (S)-2-[4-(2,6-Difluoro-phenoxy)-6-oxo-6H-pyridazin-1-yl]-N-[1-(2-hydroxy-2-methyl-propyl)-1H-pyrazol-3-yl]-3-(tetrahydro-pyran-4-yl)-propionamide] as the molecule, how does the “SC1.5 average (concentration of activator that produced a 50% increase in the activity of GK)” value read?
A: 0.148 µM

Q: With `Cc1nnc(NC(=O)C(CC2CCCC2)n2ncc(Oc3ccccc3)cc2=O)s1` (stereo not shown) [Example 4, 3-Cyclopentyl-N-(5-methyl-[1,3,4]thiadiazol-2-yl)-2-(6-oxo-4-phenoxy-6H-pyridazin-1-yl)-propionamide] as the molecule, how does the “SC1.5 average (concentration of activator that produced a 50% increase in the activity of GK)” value read?
A: 6.205 µM

Q: `CC(C)(O)Cn1ccc(NC(=O)[C@H](CC2CCCC2)n2ncc(Oc3ccccc3S(C)(=O)=O)cc2=O)n1` [Example 30A, (S)-3-Cyclopentyl-N-[1-(2-hydroxy-2-methyl-propyl)-1H-pyrazol-3-yl]-2-[4-(2-methanesulfonyl-phenoxy)-6-oxo-6H-pyridazin-1-yl]-propionamide] was tested. Which “SC1.5 average (concentration of activator that produced a 50% increase in the activity of GK)” value did it give?
A: 1.566 µM

Q: Which “SC1.5 average (concentration of activator that produced a 50% increase in the activity of GK)” value does the source give for `CC(C)(O)Cn1ccc(NC(=O)[C@H](CC2CCCC2)n2ncc(Oc3cccc4cnccc34)cc2=O)n1` [Example 37A, (S)-3-Cyclopentyl-N-[1-(2-hydroxy-2-methyl-propyl)-1H-pyrazol-3-yl]-2-[4-(isoquinolin-5-yloxy)-6-oxo-6H-pyridazin-1-yl]-propionamide] here?
A: 0.238 µM

Q: Which “SC1.5 average (concentration of activator that produced a 50% increase in the activity of GK)” value does the source give for `CC(C)(O)Cn1ccc(NC(=O)C(CC2CCCC2)n2ncc(Oc3cccc(F)c3F)cc2=O)n1` (stereo not shown) [Example 31, 3-Cyclopentyl-2-[4-(2,3-difluoro-phenoxy)-6-oxo-6H-pyridazin-1-yl]-N-[1-(2-hydroxy-2-methyl-propyl)-1H-pyrazol-3-yl]-propionamide] here?
A: 0.209 µM

Q: How did the “SC1.5 average (concentration of activator that produced a 50% increase in the activity of GK)” value turn out when `O=C(Nc1ccn(C[C@@H](O)CO)n1)C(CC1CCCC1)n1ncc(OC2CCC2)cc1=O` (stereo partly drawn) [Example 94, 2-(4-Cyclobutoxy-6-oxo-6H-pyridazin-1-yl)-3-cyclopentyl-N-[1-((R)-2,3-dihydroxy-propyl)-1H-pyrazol-3-yl]-propionamide] was run?
A: > 30 µM

Q: With `CC(C)(O)Cn1ccc(NC(=O)C(Cc2c(F)cccc2F)n2ncc(Oc3c(F)cccc3F)cc2=O)n1` (stereo not shown) [Example 50, 2-[4-(2,6-Difluoro-phenoxy)-6-oxo-6H-pyridazin-1-yl]-3-(2,6-difluoro-phenyl)-N-[1-(2-hydroxy-2-methyl-propyl)-1H-pyrazol-3-yl]-propionamide] as the molecule, how does the “SC1.5 average (concentration of activator that produced a 50% increase in the activity of GK)” value read?
A: 0.466 µM

Q: For `Cn1nc(NC(=O)C(CC2CCCC2)n2ncc(Oc3ccccc3C(F)(F)F)cc2=O)cc1C(F)(F)F` (stereo not shown) [Example 45, 3-Cyclopentyl-N-(1-methyl-5-trifluoromethyl-1H-pyrazol-3-yl)-2-[6-oxo-4-(2-trifluoromethyl-phenoxy)-6H-pyridazin-1-yl]-propionamide], which “SC1.5 average (concentration of activator that produced a 50% increase in the activity of GK)” value is on record?
A: > 30 µM

Q: For `O=C(Nc1cnc(C(O)CO)cn1)C(CC1CCCC1)n1ncc(Oc2c(F)cccc2F)cc1=O` (stereo in doubt) [Example 106, 3-Cyclopentyl-2-[4-(2,6-difluoro-phenoxy)-6-oxo-6H-pyridazin-1-yl]-N-[5-((R)-1,2-dihydroxy-ethyl)-pyrazin-2-yl]-propionamide], which “SC1.5 average (concentration of activator that produced a 50% increase in the activity of GK)” value is on record?
A: 0.082 µM

Q: How did the “SC1.5 average (concentration of activator that produced a 50% increase in the activity of GK)” value turn out when `CC(C)CC(C(=O)Nc1ccn(CC(C)(C)O)n1)n1ncc(Oc2c(F)cccc2F)cc1=O` (stereo not shown) [Example 42, 2-[4-(2,6-Difluoro-phenoxy)-6-oxo-6H-pyridazin-1-yl]-4-methyl-pentanoic acid [1-(2-hydroxy-2-methyl-propyl)-1H-pyrazol-3-yl]-amide] was run?
A: 0.349 µM
